Assay [1] concerns Berkeley sickle mouse red cells. The experiment in a line: Fluo-3 fluorescence measurement of [Ca2+]i during deoxygenation, Berkeley cells. The class given is cell-based. The settings on record: 1 μM bath preincubation. The method, then: Blood was withdrawn by cardiac puncture or from the tail vein of C57B16/J wildtype mice, SAD sickle mice, or Berkeley sickle mice into heparinized syringes by IACUC-approved protocols of Beth Israel Deaconess Medical Center. Buffy coat-depleted cells were washed 5 times in standard mouse red cell wash solution containing (in mM) 172 choline Cl, 10 sucrose, 10 Na Tris-MOPS, pH 7.4, resuspended in storage solution, and kept at 4° C. until use.
Fluorescence measurements of cytosolic [Ca^2+] […]
Measurement of relative changes in [Ca^2+]i by Fluo-3 fluorescence emission was previously validated in intact human (Yang et al. 2000, Blood, 95(7):2421-2425; Andrews et al. 2002, Blood, 199(9):3392-3399) and mouse red cells (Akel et al. 2007, Amer. J. Physiol., 292(5):C1759-1767). […] Fluorescence emission (proportional to [Ca^2+]i) from a 535ds20 bandpass filter was collected from all attached single cells within the arbitrarily selected visual field. […]
Fluo-3 fluorescence from attached cells on each coverslip was recorded 60 sec in room air and then for 10 min after onset of perfusion chamber flushing with humidified 100% N2. […] The y-axis value of 0% change in Fluo-3 fluorescence intensity represented mean intensity recorded from all cells within the coverslip visual field during the 60 sec prior to deoxygenation.

The subject of assay [2] is deoxygenation-activated Ca2+-permeable conductance in human SS cells. The assay can be described thus: On-cell patch clamp of deoxygenation-activated Ca2+-permeable conductance, CaCl2 in pipette. The class given is cell-based. The settings on record: 1 μM in the pipette; -Vp=-25 mV. The protocol: Blood cell preparation: Human SS and AA blood was obtained under IRB-approved protocols of Children's Hospital and Beth Israel Deaconess Medical Center. After buffy coat removal and 5 washes in standard human red cell wash solution containing (in mM) 150 choline Cl, 1 MgCl, and 10 Tris-MOPS, pH 7.4, red cells were resuspended in storage solution containing (in mM) 145 KCl, 15 NaCl, and 10 HEPES, pH 7.4, then kept at 4° C. until used. […]
Mouse red cells allowed to settle on coverslips were superfused 15 min with bath solution containing (in mM) either 150 mM Na methanesulfonate, 10 Na EDTA, and 10 Na HEPES, pH 7.4; or 140 NaCl, 4 KCl, 1CaCl2, 1 MgCl2, 10 Na HEPES, pH 7.4. […] The resulting bath pO2 was 18 mm Hg as measured by oxygen electrode (WPI). […]
On-cell patch clamp: Borosilicate pipettes (Corning 7052) pulled with a Narishige two stage puller or a Sutter P97 puller and fire-polished to resistances of 10-20 MΩ were front-filled and then backfilled. […] For study of deoxygenation-induced monovalent cation permeation in the absence of bath Ca^2+ and Mg^2+ recorded in SAD and Berkeley mouse cells and in human cells, symmetric bath and pipette solutions contained (in mM) 150 Na methanesulfonate, 10 Na EDTA, and 10 Na HEPES, pH 7.4. […]
On-cell patch currents were recorded with the Axopatch 1-D amplifier (Axon Instruments/Molecular Devices, Sunnyvale, Calif.). […]
For orientation: Patch clamp records ionic current or voltage across a cell membrane.

The results in this text go back to US9211313B2, “Methods and compound to inhibit Ca2+ permeable cation conductance” (priority 2011, dated 2015).

In the case of “Grammastola spatulata mechanotoxin 4 (GCLEFWWKCNPNDDKCCRPKLKCSKLFKLCNFSF; listed as Grammastola spatulata) [GsMTx-4]”, the “effect on deoxygenation-increased [Ca2+]i” value in assay [1] was “inhibited nearly completely”; in assay [1] (listed as GsMtx-4), “prevented”. The “effect on deoxygenation-induced increase in NPo, Ca2+ in the pipette” value in assay [2] is reported as “prevented”.
